What was measured:
[1] = Drug exposure in male and female animals; type: in vivo; details: mice and rats
Excerpt: Sex and Gender in this Research
Multiple sclerosis (MS) is more prevalent in women than men, but male patients develop more severe clinical symptoms and deteriorate faster than female patients. With respect to the animal models for MS used in this research, t he following aspects were considered: […]
and rats, which were not deemed relevant for this research. Previous efficacy studies in the […]
animals usedand perfo rm separate studies for male an female mice in MS models.
MOG35-55 induced EAE in C57BL/6 mice:
No differences have been observed in disease incidence or severity between sexes in MOG35-55 induced EAE in C57BL/6 mice in a study by Papenfuss et al. (J Neuroimmunol, 2004;150(1-2):59-69, therefore it was not deemed justified to increase the number of animals used in the studies to study males and females independently in the experiments reported in this […]
Although a higher incidence and severity has been reported for male than female SJL mice in the TMEV model (Alley et al. Exp Neurol, 2003 Mar;180(1):14-24), females are used in mo st studies because the strain of SJL male mice are very aggressive and display a high level of dominance and inflict wounds to their housemates. […]
Hypothetical sexual dimorphism in spinal cord organotypic cultures and chr onic excitotoxicity treatment derived from 8 day old Sprague-Dawley male or female pups was not assessed. […]

[2] = test system: SMI-32 positive motoneurons in spinal cord explants; assay: Spinal cord organotypic cultures, chronic excitotoxicity (THA); type: cell-based, rat; details: ORY-2001 5, 25 and 125 nM, THA 100 µM
Protocol: Lumbar spinal cords were aseptically obtained from 8-day-old Sprague-Dawley rat pups previously euthanized by pentobarbital overdose. The tissue was placed in ice-cold high glucose containing (6.4 mg/mL) Gey’s Balanced Salt Solution (GBSS). Meninges and roots were removed, and the spinal cord was transversely sectioned into 350 µm thick slices with a McIlwain Tissue Chopper. Four slices were carefully transferred onto 30-mm-diameter Millicell-CM membranes (0.4 µm, Millipore, Billerica, MA, USA) into a 6-well plate (35-mm-diameter, Falcon) containing 1 mL of incubation medium [50% (v/v) minimal essential medium (MEM), 25 mM Hepes, 25% (v/v) heat- inactivated horse serum, 2 mM glutamine and 25% (v/v) Hank’s Balanced Salt Solution (HBSS) supplemented with 25.6 mg/mL glucose; pH 7.2. Cultures were allowed to stabilize for 1 week at 37 °C in a 5% CO2/95% air humidified environment, and thereafter medium was changed twice per week. After 7 days of the explant culture, chronic glutamate excitotoxicity was induced by exposure at DL-threo-β-hydroxyaspartic acid (THA; 100 µM; Sigma-Aldrich, Saint Louis, MO, USA). […] Motoneurons, identified by SMI-32 immunostaining and localization in the ventral horn, were counted by using the Cell Counter plugin of ImageJ software. A minimum of 12 sections were evaluated for each experimental condition.

lymphocytes = assay: GLP toxicological studies, lymphocyte count, rats; type: in vivo, Wistar rats; details: mean ± SD
Excerpt: T r eat m e nt N Ly m p h o c y te s Equivalent m ou se d o se
( mg /k g p. o. ga va g e) (109/ L ) ( mg /k g p.o ga va ge)
6 m ont h s W i sta r r at s
9 m ont h s Be ag le d og s
Eff ec t of t r ea t me nt wi t h O RY-2 00 1 a d mi ni st e r e d by or al ga va ge o n l y m ph oc yt e s ob se r ve d i n G LP
t ox i c ol ogi c a l st udi e s i n r at a nd do g. A ni ma l s we r e t re a t e d or al l y (fi ve c o ns e c ut i ve da ys/ we e k) by ga va ge
28 da ys or 6 mo nt hs ( ra t s) a nd 28 da ys or 9 mo nt hs (dogs). Data re prese nt de me a n ± S D. T he e q ui va l e n t
dos e i n m o use i s i n di c at e d. 1-wa y A N OV A a n d D u n ne t t’ s M ul ti pl e C o m pa ri so n t e st wa s use d.

Nc1nnc(CN[C@@H]2C[C@H]2c2ccc(OCc3ccccc3)cc2)o1 [ORY-2001]
difference of exposure between male and female animals [1]: Minor differences
protection of motoneurons compared with riluzole (5 µM) [2]: outperformed the effect exerted by riluzole
survival of SMI32 positive motoneurons challenged with THA ([2]; to 28 DIV): protected the motoneurons from chronic excitotoxic stress at all doses tested
Lymphocytes (lymphocytes; 6 months Wistar rats, 0.07 mg/kg p.o. gavage (equivalent mouse dose 0.14)): 3.25 ± 0.75 109/L
Lymphocytes (lymphocytes; 6 months Wistar rats, 0.20 mg/kg p.o. gavage (equivalent mouse dose 0.40)): 4.02 ± 0.99 109/L
Lymphocytes (lymphocytes; 6 months Wistar rats, 0.40 mg/kg p.o. gavage (equivalent mouse dose 0.80)): 3.72 ± 1.12 109/L
Lymphocytes (lymphocytes; 28 d Wistar rats, 0.07 mg/kg p.o. gavage (equivalent mouse dose 0.14)): 3.65 ± 1.39 109/L
Lymphocytes (lymphocytes; 28 d Wistar rats, 0.20 mg/kg p.o. gavage (equivalent mouse dose 0.40)): 3.44 ± 0.62 109/L
Lymphocytes (lymphocytes; 28 d Wistar rats, 0.60 mg/kg p.o. gavage (equivalent mouse dose 1.20)): 3.89 ± 1.14 109/L

— publication PMC9323733, “Efficacy of Vafidemstat in Experimental Autoimmune Encephalomyelitis Highlights the KDM1A/RCOR1/HDAC Epigenetic Axis in Multiple Sclerosis” (Pharmaceutics, 2022)
